Data published in patent publication US20250361234A1 (NICO THERAPEUTICS, INC., priority 2022, published 2025).

Target: T1, full-length SARM1 (FL-SARM1) (Homo sapiens, UniProt Q6SZW1)
T1 sequence (Q6SZW1 28-724): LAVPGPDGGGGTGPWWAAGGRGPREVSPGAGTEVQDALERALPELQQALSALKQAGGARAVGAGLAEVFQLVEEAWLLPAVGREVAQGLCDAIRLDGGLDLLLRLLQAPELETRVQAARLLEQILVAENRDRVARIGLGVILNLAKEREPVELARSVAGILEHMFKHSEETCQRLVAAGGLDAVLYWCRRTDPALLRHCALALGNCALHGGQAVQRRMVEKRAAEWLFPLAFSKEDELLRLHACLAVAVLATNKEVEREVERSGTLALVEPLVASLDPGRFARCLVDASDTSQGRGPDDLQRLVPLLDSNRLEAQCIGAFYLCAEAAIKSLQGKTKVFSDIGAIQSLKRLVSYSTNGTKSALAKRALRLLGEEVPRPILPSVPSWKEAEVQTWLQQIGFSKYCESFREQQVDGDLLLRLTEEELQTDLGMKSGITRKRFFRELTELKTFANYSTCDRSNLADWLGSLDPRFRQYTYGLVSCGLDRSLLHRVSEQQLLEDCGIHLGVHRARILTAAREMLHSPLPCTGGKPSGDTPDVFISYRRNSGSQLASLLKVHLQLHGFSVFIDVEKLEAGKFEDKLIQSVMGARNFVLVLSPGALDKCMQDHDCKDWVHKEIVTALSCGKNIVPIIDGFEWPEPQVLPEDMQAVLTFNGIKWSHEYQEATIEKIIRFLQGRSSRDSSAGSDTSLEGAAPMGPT
Assay: FL-SARM1 cellular lysate assay (NAD/NADH-Glo readout of remaining NAD+)
Settings: SARM1 cellular lysate from transfected HEK293T cells, NAD+ and NMN, 11 point curve

SMILES | IC50 (Activity (μM)) [µM] | IC50 (Activity) [µM]
COc1ccc(-c2cc(NC(=O)N3C4CCCC3C4)ccc2C)cn1 [Example 67, N-(3-(6-methoxypyridin-3-yl)-4-methylphenyl)-6-azabicyclo[3.1.1]heptane-6-carboxamide] | 0.4 | 0.0001 to 1
O=C(Nc1ccc(F)c(-c2cncc(F)c2)c1)N1C2CCCC1C2 [Example 74, N-(4-fluoro-3-(5-fluoropyridin-3-yl)phenyl)-6-azabicyclo[3.1.1]heptane-6-carboxamide] | 2.8 | 1 to 10
Cc1ccc(NC(=O)N2C3CCC2(C)CC3)cc1-c1cncc(F)c1 [Example 5, N-(3-(5-fluoropyridin-3-yl)-4-methylphenyl)-1-methyl-7-azabicyclo[2.2.1]heptane-7-carboxamide] | 0.3 | 0.0001 to 1
Cc1ccc(NC(=O)N2C3C[C@@H](C(F)F)C[C@@H]2C3)cc1-c1cncc(F)c1 [Example 4, trans-3-(difluoromethyl)-N-(3-(5-fluoropyridin-3-yl)-4-methylphenyl)-6-azabicyclo[3.1.1]heptane-6-carboxamide] | 0.1 | 0.0001 to 1
COC(=O)[C@H]1C[C@@H]2C[C@H](C1)N2C(=O)Nc1ccc(C)c(-c2cncc(F)c2)c1 (single isomer, unassigned) [Example 12, trans-methyl 6-((3-(5-fluoropyridin-3-yl)-4-methylphenyl)carbamoyl)-6-azabicyclo[3.1.1]heptane-3-carboxylate] | 3.7 | 1 to 10
Cc1ccc(NC(=O)N2CCCCC2C)cc1-c1cncc(F)c1 (racemic) [Example 32, N-(3-(5-fluoropyridin-3-yl)-4-methylphenyl)-2-methylpiperidine-1-carboxamide] | 1.9 | 1 to 10
Cc1ccc(NC(=O)N2C3C[C@H]2C[C@]2(C3)CC2(F)F)cc1-c1cncc(F)c1 (stereo in doubt) [Example 10, trans-2′,2′-difluoro-N-(3-(5-fluoropyridin-3-yl)-4-methylphenyl)-6-azaspiro[bicyclo[3.1.1]heptane-3,1′-cyclopropane]-6-carboxamide] | 0.3 | 0.0001 to 1
Cc1ccc(NC(=O)N2C3CCCC2C3)cc1-c1cncc(OCF)c1 [Example 45, N-(3-(5-(fluoromethoxy)pyridin-3-yl)-4-methylphenyl)-6-azabicyclo[3.1.1]heptane-6-carboxamide] | 0.06 | 0.0001 to 1
Cc1nnc([C@]23C[C@H](C)C[C@H](C2)N3C(=O)Nc2cc(-c3cncc(F)c3)c(C)cc2F)o1 (single isomer, unassigned) [Example 124, cis-N-(2-fluoro-5-(5-fluoropyridin-3-yl)-4-methylphenyl)-3-methyl-1-(5-methyl-1,3,4-oxadiazol-2-yl)-6-azabicyclo[3.1.1]heptane-6-carboxamide] | 5.5 | 1 to 10
Cc1ccc(NC(=O)N2C[C@@H](C)CC[C@H]2C)cc1-c1cncc(F)c1 (racemic) [Example 8, cis-N-(3-(5-fluoropyridin-3-yl)-4-methylphenyl)-2,5-dimethylpiperidine-1-carboxamide] | 2.6 | 1 to 10
Cc1nnc([C@]23C[C@H](C)C[C@H](C2)N3C(=O)Nc2ccc(C(F)(F)F)c(-c3cncc(F)c3)c2)o1 (single isomer, unassigned) [Example 120, cis-N-(3-(5-fluoropyridin-3-yl)-4-(trifluoromethyl)phenyl)-3-methyl-1-(5-methyl-1,3,4-oxadiazol-2-yl)-6-azabicyclo[3.1.1]heptane-6-carboxamide] | > 50 | > 10
Cc1ccc(NC(=O)CC2CCC2)cc1-c1cncnc1 [Example 118, 2-cyclobutyl-N-(4-methyl-3-pyrimidin-5-ylphenyl)acetamide] | 13.9 | > 10
Cc1ccc(NC(=O)N2C[C@@H]3C[C@H]2C[C@H]3OC(F)F)cc1-c1cncc(F)c1 (racemic) [Example 31, cis-5-(difluoromethoxy)-N-(3-(5-fluoropyridin-3-yl)-4-methylphenyl)-2-azabicyclo[2.2.1]heptane-2-carboxamide] | 28.6 | > 10
COc1cncc(-c2cc(NC(=O)N3[C@@H]4C[C@@H](C)C[C@@]3(c3nnc(C)o3)C4)c(F)cc2C(F)(F)F)c1 (single isomer, unassigned) [Example 123, cis-N-(2-fluoro-5-(5-methoxypyridin-3-yl)-4-(trifluoromethyl)phenyl)-3-methyl-1-(5-methyl-1,3,4-oxadiazol-2-yl)-6-azabicyclo[3.1.1]heptane-6-carboxamide] | 0.006 | 0.0001 to 1
Cc1ccc(NC(=O)N2C3C[C@@H]2C[C@H](n2cccn2)C3)cc1-c1cncc(F)c1 [Example 27, cis-N-(3-(5-fluoropyridin-3-yl)-4-methylphenyl)-3-(1H-pyrazol-1-yl)-6-azabicyclo[3.1.1]heptane-6-carboxamide] | 14.1 | > 10
Cc1nnc([C@]23C[C@H](C)C[C@H](C2)N3C(=O)Nc2cc(-c3cncc(F)c3)c(Cl)cc2F)o1 (single isomer, unassigned) [Example 132, cis-N-(4-chloro-2-fluoro-5-(5-fluoropyridin-3-yl)phenyl)-3-methyl-1-(5-methyl-1,3,4-oxadiazol-2-yl)-6-azabicyclo[3.1.1]heptane-6-carboxamide] | 0.05 | 0.0001 to 1
Cc1ccc(NC(=O)N2C3C[C@@H](C#N)C[C@@H]2C3)cc1-c1cncc(F)c1 [Example 36, trans-3-cyano-N-(3-(5-fluoropyridin-3-yl)-4-methylphenyl)-6-azabicyclo[3.1.1]heptane-6-carboxamide] | 0.8 | 0.0001 to 1
Cc1ccc(NC(=O)[C@@H]2CC2(F)F)cc1-c1cncc(F)c1 [Example 110, (S)-2,2-difluoro-N-(3-(5-fluoropyridin-3-yl)-4-methylphenyl)cyclopropanecarboxamide] | 8.2 | 1 to 10
Cc1ccc(NC(=O)[C@H]2C[C@@H](C3CC3(F)F)C2)cc1-c1cccnc1 (stereo partly drawn) [Example 100, cis-3-(2,2-difluorocyclopropyl)-N-(4-methyl-3-pyridin-3-ylphenyl)cyclobutane-1-carboxamide] | 1.5 | 1 to 10
COC[C@H]1CC[C@H]2CC1N2C(=O)Nc1ccc(C)c(-c2cncc(F)c2)c1 [Example 15, cis-N-(3-(5-fluoropyridin-3-yl)-4-methylphenyl)-2-(methoxymethyl)-6-azabicyclo[3.1.1]heptane-6-carboxamide] | 1.7 | 1 to 10
Cc1ccc(NC(=O)N2C3CCCC2C3)cc1-c1cnccc1C#N [Example 62, N-(3-(4-cyanopyridin-3-yl)-4-methylphenyl)-6-azabicyclo[3.1.1]heptane-6-carboxamide] | 1.1 | 1 to 10
Cc1ccc(NC(=O)N2C[C@@H]3CC2C[C@H]3C#N)cc1-c1cncc(F)c1 [Example 16, cis-5-cyano-N-(3-(5-fluoropyridin-3-yl)-4-methylphenyl)-2-azabicyclo[2.2.1]heptane-2-carboxamide] | 41 | > 10
O=C(Nc1ccc(CC(F)F)c(-c2cncc(F)c2)c1)N1C2CCCC1C2 [Example 23, N-(4-(2,2-difluoroethyl)-3-(5-fluoropyridin-3-yl)phenyl)-6-azabicyclo[3.1.1]heptane-6-carboxamide] | 0.9 | 0.0001 to 1
Cc1ccc(NC(=O)N2C3CCCC2C3)cc1-c1cncc(C#N)c1 [Example 72, N-(3-(5-cyanopyridin-3-yl)-4-methylphenyl)-6-azabicyclo[3.1.1]heptane-6-carboxamide] | 0.1 | 0.0001 to 1
COC(=O)[C@H]1CC2C[C@@H](C1)N2C(=O)Nc1ccc(C)c(-c2cncc(F)c2)c1 (single isomer, unassigned) [Example 13, cis-methyl 6-((3-(5-fluoropyridin-3-yl)-4-methylphenyl)carbamoyl)-6-azabicyclo[3.1.1]heptane-3-carboxylate] | 3.4 | 1 to 10
Cc1ccc(NC(=O)N2C3C[C@H]2C[C@@H](C(C)(C)O)C3)cc1-c1cncc(F)c1 [Example 9, cis-N-(3-(5-fluoropyridin-3-yl)-4-methylphenyl)-3-(2-hydroxypropan-2-yl)-6-azabicyclo[3.1.1]heptane-6-carboxamide] | 4.2 | 1 to 10
Cc1ccc(NC(=O)N2CC3CCC2C3)cc1-c1cncc(F)c1 (centres unmarked) [Example 18, N-(3-(5-fluoropyridin-3-yl)-4-methylphenyl)-2-azabicyclo[2.2.1]heptane-2-carboxamide] | 1 | 1 to 10
Cc1ccc(NC(=O)C2CCCN2C(=O)OC(C)(C)C)cc1-c1cncc(F)c1 (racemic) [Example 105, tert-butyl 2-[[3-(5-fluoropyridin-3-yl)-4-methylphenyl]carbamoyl]pyrrolidine-1-carboxylate] | 13.5 | > 10
